Where “and” joins values, the source holds several entries; their conditions need not be identical. Identical values can stand only once.

The values that follow come from article PMC5478271, “Chemical structure-guided design of dynapyrazoles, cell-permeable dynein inhibitors with a unique mode of action” (eLife, 2017).

Holding throughout (assay type): biochemical
Assay [1] has as its target T1, His-dynein 1 (Homo sapiens, UniProt Q14204).
T1 construct: (wild-type, K1912A, K2601A, AA 1320–4646, uniprot: Q14204); made in house; host or cells: Sf9 insect cells (baculovirus)
Put plainly: Basal ATPase activity of His-dynein 1 (wild-type). To be noted: 40 µM compound, 1 mM MgATP, 2% DMSO; control 0.66 ± 0.1 s^−1. As to the method:
ATPase assays using recombinant Dynein 1 (wild-type and mutants) were performed in a buffer containing 25 mM PIPES pH7.0, 30 mM KCl, 1 mM EGTA, 5 mM MgCl2, 0.01% triton X-100, 1 mM DTT, and 20–30 µM taxol (if microtubules were present). For typical conditions, enzyme was incubated with varying concentrations of inhibitor in buffer containing 2% DMSO for 10 min in a volume of 10 μL. When microtubules were present, they were polymerized by stepwise addition of taxol and high concentrations of DMSO (30% final during polymerization reactions), and re-suspended following centrifugation in ATPase buffer to a concentration up to threefold above the final concentration used in the reaction (bovine brain tubulin, no fluoresecent label). For microtubule-stimulated reactions in dose-response format, reactions were assembled by 1:1:1 mixture of 3x enzyme stock, 3x compound stock (in buffer with 6% DMSO), and 3x microtubule stock to each well. For microtubule-stimulated ATPase assays at tubulin concentrations > 2.5 µM, enzyme stock was supplemented with compound stock in pure DMSO (resulting in an intermediate DMSO concentration of 6%), and then the microtubule stock was added. […]
Assembled reaction mixtures (including enzyme, compound, and microtubules, if present) were incubated for 10 min before addition of ATP. […] The fraction of γ-phosphate hydrolyzed in each condition was quantified using FIJI.

Assay [2] concerns the target T2, AAA3 Walker A-mutant His-dynein 1 (K2601A) (Homo sapiens, UniProt Q14204, K2601A).
T2 construct: (wild-type, K1912A, K2601A, AA 1320–4646, uniprot: Q14204); made in house; host or cells: Sf9 insect cells (baculovirus)
Put plainly: ATPase activity of AAA3 Walker A-mutant (K2601A) His-dynein 1. The note with it: for IC50: 2% DMSO, read-out: IC50, inhibition of the basal ATPase activity of the AAA3 Walker A-mutant His-dynein 1. As to the method:
(§1) ATPase assays using recombinant Dynein 1 (wild-type and mutants) were performed in a buffer containing 25 mM PIPES pH7.0, 30 mM KCl, 1 mM EGTA, 5 mM MgCl2, 0.01% triton X-100, 1 mM DTT, and 20–30 µM taxol (if microtubules were present). For typical conditions, enzyme was incubated with varying concentrations of inhibitor in buffer containing 2% DMSO for 10 min in a volume of 10 μL. When microtubules were present, they were polymerized by stepwise addition of taxol and high concentrations of DMSO (30% final during polymerization reactions), and re-suspended following centrifugation in ATPase buffer to a concentration up to threefold above the final concentration used in the reaction (bovine brain tubulin, no fluoresecent label). For microtubule-stimulated reactions in dose-response format, reactions were assembled by 1:1:1 mixture of 3x enzyme stock, 3x compound stock (in buffer with 6% DMSO), and 3x microtubule stock to each well. For microtubule-stimulated ATPase assays at tubulin concentrations > 2.5 µM, enzyme stock was supplemented with compound stock in pure DMSO (resulting in an intermediate DMSO concentration of 6%), and then the microtubule stock was added. Final enzyme concentrations were 30–100 nM for GFP-dynein 1, wild-type 6x-His-dynein 1, and K2601A 6x-His-dynein 1 and up to 500 nM for K1912A 6x-His-dynein 1. The final DMSO concentration was 2% in all ATPase assays performed.
(§2) Assembled reaction mixtures (including enzyme, compound, and microtubules, if present) were incubated for 10 min before addition of ATP. Each ATPase reaction was initiated by addition of 2 μL of a 6x ATP stock containing trace γ-^32P ATP (3 µCi/mmol, 3 µCi/mL, Perkin Elmer) and allowed to proceed for a time predetermined to lie within the linear range of the assay (20–30 min). For typical conditions, ATP was used at a final concentration of 1 mM. Reactions were quenched by the addition of 12 µL 100 mM EDTA, and 2 μL of each quenched reaction was spotted onto PEI-cellulose TLC plates (Millipore). Plates were developed in a glass chamber with a freshly prepared solution of 150 mM formic acid and 150 mM LiCl, dried, exposed to a storage phosphor tray (GE Healthsciences), and scanned on a Typhoon imaging system (GE Healthsciences). The fraction of γ-phosphate hydrolyzed in each condition was quantified using FIJI.
Curve fitting: Where dose-response experiments are fit and IC50values given, these are obtained as follows: Individual experiments are treated as separate. The data are fit to a sigmoidal dose-response curve of the form (Y=Bottom + (Top-Bottom)/(1 + 10^((LogIC50-X)*HillSlope)). All variables were allowed to float freely with the exception of the variable denoted ‘bottom’, which was constrained to be >0. The separate IC50 values obtained from fits to each individual experiment's dataset were averaged together and presented as a mean with range (Figure 3G and H) or standard deviation (Figures 3I, 5D, 6E and K).

The target in assay [3] is T1, His-dynein 1. Put plainly: Microtubule-stimulated ATPase activity of His-dynein 1. The note with it: 1 mM MgATP. As to the method:
as §1, §2
Curve fitting: Where dose-response experiments are fit and IC50values given, these are obtained as follows: Individual experiments are treated as separate. […]

T2 sequence (Q14204 1320-4646 K2601A): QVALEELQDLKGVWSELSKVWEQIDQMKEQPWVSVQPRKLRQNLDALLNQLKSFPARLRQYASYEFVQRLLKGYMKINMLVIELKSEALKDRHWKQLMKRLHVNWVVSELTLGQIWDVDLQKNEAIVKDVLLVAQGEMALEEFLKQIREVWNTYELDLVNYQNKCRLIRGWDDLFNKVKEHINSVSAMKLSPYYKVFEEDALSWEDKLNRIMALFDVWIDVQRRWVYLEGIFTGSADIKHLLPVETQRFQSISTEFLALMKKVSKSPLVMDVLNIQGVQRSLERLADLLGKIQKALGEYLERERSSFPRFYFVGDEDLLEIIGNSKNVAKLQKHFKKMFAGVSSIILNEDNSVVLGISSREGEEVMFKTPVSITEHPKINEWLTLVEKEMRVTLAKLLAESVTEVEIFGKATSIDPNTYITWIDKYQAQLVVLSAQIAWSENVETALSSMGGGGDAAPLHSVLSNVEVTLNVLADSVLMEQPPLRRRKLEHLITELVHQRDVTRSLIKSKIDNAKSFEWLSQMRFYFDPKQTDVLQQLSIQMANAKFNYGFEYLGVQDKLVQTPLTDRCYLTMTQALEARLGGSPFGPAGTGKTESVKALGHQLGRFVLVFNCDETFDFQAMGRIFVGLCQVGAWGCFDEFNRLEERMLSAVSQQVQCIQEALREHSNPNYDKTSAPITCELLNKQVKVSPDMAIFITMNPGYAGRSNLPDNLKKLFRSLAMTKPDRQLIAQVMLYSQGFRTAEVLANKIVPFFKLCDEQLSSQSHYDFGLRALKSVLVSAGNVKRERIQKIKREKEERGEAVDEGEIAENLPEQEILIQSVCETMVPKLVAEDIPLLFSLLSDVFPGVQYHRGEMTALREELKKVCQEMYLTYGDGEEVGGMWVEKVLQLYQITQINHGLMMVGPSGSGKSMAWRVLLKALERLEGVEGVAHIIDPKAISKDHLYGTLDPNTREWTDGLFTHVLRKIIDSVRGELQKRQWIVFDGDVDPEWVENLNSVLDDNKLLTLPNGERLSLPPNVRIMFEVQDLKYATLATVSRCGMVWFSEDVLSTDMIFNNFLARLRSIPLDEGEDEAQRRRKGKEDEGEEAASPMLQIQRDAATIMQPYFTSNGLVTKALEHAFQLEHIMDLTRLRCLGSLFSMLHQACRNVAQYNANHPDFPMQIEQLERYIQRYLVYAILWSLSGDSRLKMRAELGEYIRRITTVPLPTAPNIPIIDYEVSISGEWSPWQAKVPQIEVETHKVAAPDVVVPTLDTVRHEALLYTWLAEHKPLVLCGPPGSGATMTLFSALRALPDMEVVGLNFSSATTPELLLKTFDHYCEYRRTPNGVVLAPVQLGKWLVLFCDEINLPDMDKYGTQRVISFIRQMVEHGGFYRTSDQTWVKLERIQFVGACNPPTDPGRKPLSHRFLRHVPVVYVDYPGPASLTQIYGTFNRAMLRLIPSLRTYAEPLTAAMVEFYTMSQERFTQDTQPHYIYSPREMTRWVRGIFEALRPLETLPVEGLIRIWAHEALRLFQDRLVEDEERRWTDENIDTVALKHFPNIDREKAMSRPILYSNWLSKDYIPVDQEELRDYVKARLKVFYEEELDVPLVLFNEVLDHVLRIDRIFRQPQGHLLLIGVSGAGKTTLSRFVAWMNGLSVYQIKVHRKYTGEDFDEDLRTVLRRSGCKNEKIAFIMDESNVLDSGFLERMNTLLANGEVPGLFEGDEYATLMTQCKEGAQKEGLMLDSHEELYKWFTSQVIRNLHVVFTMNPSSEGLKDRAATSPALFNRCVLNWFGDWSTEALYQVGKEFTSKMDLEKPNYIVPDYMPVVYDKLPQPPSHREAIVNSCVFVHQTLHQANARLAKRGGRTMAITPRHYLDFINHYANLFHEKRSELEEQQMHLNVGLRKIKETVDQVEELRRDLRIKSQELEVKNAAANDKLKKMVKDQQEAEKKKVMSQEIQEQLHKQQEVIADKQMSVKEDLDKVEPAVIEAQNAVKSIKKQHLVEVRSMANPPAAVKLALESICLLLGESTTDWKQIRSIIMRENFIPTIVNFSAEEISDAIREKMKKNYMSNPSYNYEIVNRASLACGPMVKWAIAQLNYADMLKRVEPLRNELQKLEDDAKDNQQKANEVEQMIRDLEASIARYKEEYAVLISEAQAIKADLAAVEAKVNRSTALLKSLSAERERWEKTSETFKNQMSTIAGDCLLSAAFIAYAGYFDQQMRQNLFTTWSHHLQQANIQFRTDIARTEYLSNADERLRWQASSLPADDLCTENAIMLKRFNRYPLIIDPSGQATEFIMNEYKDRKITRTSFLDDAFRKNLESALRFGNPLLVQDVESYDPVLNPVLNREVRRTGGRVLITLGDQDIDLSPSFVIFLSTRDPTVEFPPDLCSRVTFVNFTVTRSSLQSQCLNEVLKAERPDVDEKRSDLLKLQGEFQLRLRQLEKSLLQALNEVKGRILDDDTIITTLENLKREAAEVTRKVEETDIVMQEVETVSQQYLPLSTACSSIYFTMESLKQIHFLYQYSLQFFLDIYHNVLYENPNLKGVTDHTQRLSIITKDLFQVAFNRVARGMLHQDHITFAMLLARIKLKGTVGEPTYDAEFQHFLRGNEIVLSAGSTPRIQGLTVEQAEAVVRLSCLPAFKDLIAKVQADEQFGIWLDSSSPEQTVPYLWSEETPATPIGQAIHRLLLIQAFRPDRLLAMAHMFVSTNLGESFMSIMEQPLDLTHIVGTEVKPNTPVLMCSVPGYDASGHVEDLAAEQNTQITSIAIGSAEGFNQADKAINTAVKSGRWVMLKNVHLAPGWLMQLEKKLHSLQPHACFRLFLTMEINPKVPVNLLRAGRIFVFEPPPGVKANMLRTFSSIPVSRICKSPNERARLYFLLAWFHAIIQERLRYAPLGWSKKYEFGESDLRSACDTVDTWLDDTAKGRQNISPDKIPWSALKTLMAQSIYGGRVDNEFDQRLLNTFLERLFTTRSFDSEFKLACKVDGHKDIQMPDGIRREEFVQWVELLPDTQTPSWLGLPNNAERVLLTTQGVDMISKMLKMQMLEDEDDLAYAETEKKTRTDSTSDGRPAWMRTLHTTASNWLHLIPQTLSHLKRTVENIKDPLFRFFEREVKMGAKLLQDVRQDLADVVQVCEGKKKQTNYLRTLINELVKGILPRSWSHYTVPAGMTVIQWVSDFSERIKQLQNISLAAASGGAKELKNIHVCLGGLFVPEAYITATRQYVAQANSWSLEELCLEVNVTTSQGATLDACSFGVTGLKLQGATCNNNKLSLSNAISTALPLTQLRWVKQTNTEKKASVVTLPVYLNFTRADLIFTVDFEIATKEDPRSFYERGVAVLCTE
T1 sequence (Q14204 1320-4646): as the sequence (Q14204 1320-4646 K2601A) above, with A1282K counted along it

By inhibition is commonly meant the relative decrease from the control value, in per cent. One may read the IC50 as the concentration that inhibits the measured activity by half. The molecule `N#Cc1c(C2(c3ccc(Cl)cc3)CC2)nn2c1[nH]c(=O)c1cc(I)ccc12` [Compound 8, 2-[1-(4-chlorophenyl)cyclopropyl]-7-iodo-5-oxo-4H-pyrazolo[1,5-a]quinazoline-3-carbonitrile] had an inhibition at 40 µM at His-dynein 1 [1] of around 30%. In addition, in assay [2] (30 µM compound, 1 mM MgATP), the “Reduction of AAA3 mutant dynein's ATPase activity across the range of microtubule concentrations tested” value was 70–80%. Also, the inhibition at 30 µM in assay [2] (30 µM compound, no microtubules, read-out: Inhibition of basal activity of the AAA3 mutant) is around 70%. Also, the IC50 came out at 5.5 ± 1.6 µM in assay [2] (1 mM MgATP) and 6.2 ± 1.6 µM on His-dynein 1 [3] (2.5 µM microtubules, fit to non-zero plateau, read-out: IC50, inhibition of microtubule-stimulated His-dynein 1 ATPase activity). Also, the “Residual ATPase activity of AAA3 mutant at the highest concentrations tested” value in assay [2] (basal activity, dose-response) was ~ 0.2 s^−1. Further, the “Plateau of microtubule-stimulated ATPase activity at increasing compound concentrations” value at His-dynein 1 [3] (2.5 µM microtubules) is ~ 0.5 s^−1. Moreover, the “Residual rate of microtubule-stimulated ATPase activity” value at His-dynein 1 [3] (30 µM compound, 8 or 15 µM microtubules) is on record as ~ 0.5 s^−1.
The molecule `N#C/C(C(=O)c1ccc(Cl)cc1Cl)=C1\NC(=O)c2ccc(Cl)cc2N1` [ciliobrevin D, reference compound] registered an inhibition at 40 µM on His-dynein 1 [1] of around 70%. In addition, the IC50 in assay [2] (1 mM MgATP) was 38.4 µM and 38 µM. Besides, the “Plateau of microtubule-stimulated ATPase activity at increasing compound concentrations” value on His-dynein 1 [3] (2.5 µM microtubules) was “did not reveal a plateau”.
